Entries after “also recorded” stand apart in the source; their conditions may differ.
Experiments:
[1] = Particle size and surface potential of pDNA-encapsulating MENDs, dynamic light scattering (Zetasizer Nano); format: physicochemical
Description: A solution of pDNA encoding luciferase gene and protamine (CALBIOCHEM) solution were diluted with 10 mM HEPES buffer to 0.3 mg/mL and […], respectively. While stirring 0.3 mg/mL pDNA (125 μL), 0.24 mg/mL protamine (125 μL) was added dropwise in small portions to prepared an electrostatic complex of protamine and pDNA (N/P ratio=1.2) as a core of the vector. In the method described in the following (2), 10 mM HEPES buffer (pH 5.3) was used and, in the method described in (3), 10 mM HEPES buffer (pH 7.4) was used.
A lipid solution in ethanol was prepared by mixing 5 mM cationic lipid, 5 mM phospholipid and 5 mM cholesterol (Chol) at desired ratios to achieve 165 nmol total lipid in an Eppendorf tube, further adding various PEG lipids (1 mM solution in ethanol) in an amount corresponding to 3 mol % of the total lipid, and adding ethanol to achieve a total volume of 100 μL. While stirring the lipid solution in a vortex mixer, 100 μL of the nucleic acid electrostatic complex (10 mM HEPES; pH 5.3) prepared in [Experimental Example 1] (1) was quickly added, and thereafter 10 mM HEPES buffer (1.8 mL, adjusted to pH 5.3) was added to dilute the mixture to an ethanol concentration of 5%. The mixture was concentrated to about 50 μL by ultrafiltration using Amicon Ultra 4 (Millipore) under centrifugation conditions (room temperature, 2267 rpm, 20 min). Thereafter, it was diluted to 4 mL with 100 mM HEPES buffer (adjusted to pH 7.4), and again concentrated by centrifugation (2267 rpm, 20 min) under room temperature conditions. Finally, it was diluted with 10 mM HEPES buffer (pH 7.4) to a desired lipid concentration.
A solution of each lipid in chloroform (5 mM DOTAP 24.75 μL, 5 mM DOPE 33 μL, 5 mM Chol 24.75 μL) were mixed in a glass test tube at DOTAP:DOPE:Chol=3:4:3 to achieve 412.5 nmol total lipid. Ethanol was added to a total amount of 250 μL, and the mixture was dried under reduced pressure in a desiccator. The solvent was evaporated to give a lipid thin film. To the lipid thin film was added 250 μL of the gene electrostatic complex (in 10 mM HEPES; pH 7.4) prepared in [Experimental Example 1] (1) to a total lipid concentration of 1.65 mM, and the mixture was stood at room temperature for 10 min to allow for hydration, and sonicated by a sonicator (AIWA MEDICAL […] CO., LTD.) for 1 min.
The particle size and the surface potential were measured by the dynamic light scattering method (Zetasizer Nano; Malve Rn). The particle size and the surface potential of the various MENDs prepared by the preparation method of [Experimental Example 1] are shown in Table 3. The charge of B-2 and DODAP at physiological pH was in a preferable mode of −10 to +10 mV, whereas that of B-2-1 was +12.3, which is not less than +10 mV.
(1) MEND having a composition of B-2-4 (Example 4):DOPE:Chol=3:3:4 or B-2-5 (Example 5):POPE:Chol=3:4:3 was prepared according to the method described in [Experimental Example 1] (1) and (2).
The particle size and the surface potential were measured by the dynamic light scattering method (Zetasizer Nano; Malvern). The particle size and the surface potential of the various MENDs prepared by the preparation method of [Experimental Example 1] are shown in Table 4.

[2] = Particle size and surface potential of siRNA-encapsulated MEND (ethanol dilution method); format: physicochemical; settings: siRNA/protamine MEND, PEG2000-DMG 3 mol %
Description: (§1) A siRNA solution and protamine (CALBIOCHEM) solution were diluted with 10 mM HEPES buffer (pH 5.3) to 0.3 mg/mL and 0.2 mg/mL, respectively. While stirring 0.3 mg/mL siRNA solution (250 μL), 0.2 mg/mL protamine solution (250 μL) was added dropwise in small portions to prepared an electrostatic complex of siRNA and protamine (N/P ratio=1.0) as a core of the vector.
(§2) A lipid solution in ethanol was mixed at a ratio of B-2:SOPE:Chol=5:3:2 for B-2 MEND (Example 1), at a ratio of B-2-4:DOPE:Chol=3:3:4 for B-2-4 MEND (Example 4), and at a ratio of B-2-5:POPE:Chol=3:4:3 for B-2-5 MEND (Example 5), to a total lipid of 660 nmol in a 5 mL tube. Further, PEG2000-DMG was added as PEG lipid in an amount equivalent to 3 mol % of the total lipid, and ethanol was added to a total volume of 400 μL each. While stirring the lipid solution by a vortex mixer, a solution (400 μL) of a nucleic acid electrostatic complex composed of siRNA/protamine prepared in [Experimental Example 27] was mixed, then 10 mM HEPES buffer (pH 5.3, 2.4 mL) was quickly added, and the mixture was vigorously stirred. The mixture was subjected to centrifugal ultrafiltration using Amicon Ultra-15 100K device (Millipore) at 1000 g, 10 min, 30° C. The mixture was sufficiently diluted with 10 mM HEPES buffer (pH 7.4), and again subjected to centrifugal ultrafiltration. This solution was adjusted to an object lipid concentration with 10 mM HEPES buffer (pH 7.4).
The particle size and surface potential were measured using the dynamic light scattering method (Zetasizer Nano; Malvern). The particle size and surface potential of various MENDs prepared by the preparation method of [Experimental Example 28] are shown in Table 5.

[3] = system: Factor VII (FVII); assay: Knockdown effect of siRNA-encapsulated MEND (plasma FVII); format: in vivo, ICR mice; settings: 3 mg siRNA/kg, tail vein, 24 hr
Description: as §1
As a siRNA sequence for Factor VII (FVII), one described in Akinc et al, Molecular Therapy, 17(5) 872-879 (2009), which was free of chemical modification, was used.
as §2
A MEND solution prepared by the method shown in [Experimental Example 28] was administered to 4-week-old male ICR mice at 3 mg siRNA/kg from the tail vein, and blood was collected 24 hr later. This blood sample was centrifuged at 1000 g, 10 min, 4° C., and the supernatant was recovered to obtain plasma. The amount of Factor VII (FVII) in the plasma was quantified by BIOPHEN FVII CHROMOGENIC ASSAY (HYPHEN BioMed).

[4] = pDNA MEND, cationic lipid:SOPE:Chol = 3:4:3
[5] = pDNA MEND, cationic lipid:SOPE:Chol = 5:3:2
[6] = pDNA MEND, DOTAP:DOPE:Chol = 3:4:3
[7] = pDNA MEND, cationic lipid:DOPE:Chol = 3:3:4
[8] = pDNA MEND, cationic lipid:POPE:Chol = 3:4:3

Row | PDI [1, 4] | size (nm) [1, 4] | zeta (mV) [1, 4] | PDI [1, 5] | size (nm) [1, 5] | zeta (mV) [1, 5] | PDI [2] | size (nm) [2] | zeta (mV) [2] | Compound | FVII expression level in plasma (knockdown effect) [3] | other results
1 | 0.093 | 151.1 nm | −3.18 mV | 0.106 | 165.6 nm | 4.13 mV | – | – | – | CCCCCCCC/C=C\CCCCCCCC(=O)OCC(CN(C)C)OC(=O)CCCCCCC/C=C\CCCCCCCC (centres unmarked) [DODAP, reference compound] | – | –
2 | 0.07 | 150.3 nm | 12.4 mV | 0.084 | 147.8 nm | 12.3 mV | – | – | – | CCCCCCCCCCCCCC(=O)OCCCN(C)CCCCCCN(C)CCCOC(=O)CCCCCCCCCCCCC [Example B-2-1, reference compound] | – | charge at physiological pH ([1]; pDNA MEND): +12.3 mV
3 | – | – | – | – | – | – | 0.13 | 218 nm | −9.1 mV | Cc1c(C)c2c(c(C)c1OC(=O)CCC(=O)OCCCN(C)CCSSCCN(C)CCCOC(=O)CCC(=O)Oc1c(C)c(C)c3c(c1C)CCC(C)(CCCC(C)CCCC(C)CCCC(C)C)O3)CCC(C)(CCCC(C)CCCC(C)CCCC(C)C)O2 (centres unmarked) [Example B-2-5] | decrease in the FVII expression level as compared to the non-treatment group; also recorded: greatest knockdown effect | PDI [1, 8]: 0.15; size (nm) [1, 8]: 131.7 nm; zeta (mV) [1, 8]: −9.35 mV

The next lines start with the compound.

Row | Compound | PDI [1, 4] | size (nm) [1, 4] | zeta (mV) [1, 4] | PDI [1, 5] | size (nm) [1, 5] | zeta (mV) [1, 5] | PDI [2] | size (nm) [2] | zeta (mV) [2] | FVII expression level in plasma (knockdown effect) [3] | other results
4 | CCCCCCCC/C=C\CCCCCCCC(=O)OCC(C[N+](C)(C)C)OC(=O)CCCCCCC/C=C\CCCCCCCC (centres unmarked) [DOTAP, reference compound] | – | – | – | – | – | – | – | – | – | – | surface potential of MEND ([1]; pDNA MEND using DOTAP): about +50 mV; PDI [1, 6]: 0.295; size (nm) [1, 6]: 235.8 nm; zeta (mV) [1, 6]: 57.9 mV
5 | CC1=C(/C=C/C(C)=C/C=C/C(C)=C/C(=O)OCCCN(C)CCSSCCN(C)CCCOC(=O)/C=C(C)/C=C/C=C(C)/C=C/C2=C(C)CCCC2(C)C)C(C)(C)CCC1 [Example B-2-4] | – | – | – | – | – | – | 0.11 | 186 nm | −5.1 mV | decrease in the FVII expression level as compared to the non-treatment group | PDI [1, 7]: 0.12; size (nm) [1, 7]: 146.7 nm; zeta (mV) [1, 7]: −7.22 mV
6 | CCCCCCCCCCCCCC(=O)OCCCN(C)CCSSCCN(C)CCCOC(=O)CCCCCCCCCCCCC [Example B-2] | 0.14 | 156.3 nm | −0.08 mV | 0.11 | 168.9 nm | −2.95 mV | 0.07 | 186 nm | −1.7 mV | decrease in the FVII expression level as compared to the non-treatment group | –

— patent US9708628B2, “Cationic lipid having improved intracellular kinetics” (NOF CORPORATION, priority 2011, dated 2017)
